Target: recombinant human prostanoid EP2 receptor (Homo sapiens (Human), UniProt P43116)
Assay: Human prostanoid EP2 receptor cellular functional assay (cAMP, HTRF)
Type: cell-based
Settings: for EC50: CHO cells expressing recombinant human EP2, cAMP by HTRF, 30 min, 37° C., read-out: In vitro functional assay EP2 (h) EC50; for In vitro functional assay EP2 (h) % response: percent of control specific agonist response (10 μM PGE2)
Method: Test 1.2: Human Prostanoid EP2 Receptor Cellular Functional Assay
Human CHO cells expressing the recombinant human prostanoid EP2 receptor were suspended in assay medium (HBSS buffer (Invitrogen) containing 20 mM HEPES (pH7.4) and 500 μM isobutyl-methylxanthine IBMX) and plated out to yield approximately 1×10^4 cells/well in a 96-well. Following this, cells were incubated with agonists for 30 min in the presence of the test compounds. For stimulated control measurements, separate assay wells contain 10 μM PGE2 (control specific agonist). All incubations were carried out at 37° C. in a 5% CO2 atmosphere. Following incubation, the amount of cAMP in each well was determined by HTRF method. The cells are lysed and the fluorescence acceptor (D2-labeled cAMP) and fluorescence donor (anti-cAMP antibody labeled with europium cryptate) are added. After 60 min at room temperature, the fluorescence transfer is measured at λ ex=337 nm and λ em=620 and 665 nm using a microplate reader (Rubystar, BMG).
The cAMP concentration is determined by dividing the signal measured at 665 nm by that measured at 620 nm (ratio).
The standard reference agonist PGE2 was tested at several concentrations to generate a concentration-response curve to determined EC50.
Analysis and Expression of Results
The results are expressed as a percent of control specific agonist response ((measured specific response/control specific agonist response)×100) obtained in the presence of the test compounds. The EC50 values (concentration producing a half-maximal specific response) were determined by non-linear regression analysis of the concentration-response curves generated with mean replicate values using Hill equation curve fitting (Y=D+[(A−D)/(1+(C/C50)nH)], where Y=specific response, D=minimum specific response, A=maximum specific response, C=compound concentration, and C50=EC50 and nH=slope factor). This analysis was performed using a software developed at Cerep (Hill software) and validated by comparison with data generated by the commercial software SigmaPlot® 4.0 for Windows® (© 1997 by SPSS Inc.).

Chain of recombinant human prostanoid EP2 receptor (P43116 whole entry): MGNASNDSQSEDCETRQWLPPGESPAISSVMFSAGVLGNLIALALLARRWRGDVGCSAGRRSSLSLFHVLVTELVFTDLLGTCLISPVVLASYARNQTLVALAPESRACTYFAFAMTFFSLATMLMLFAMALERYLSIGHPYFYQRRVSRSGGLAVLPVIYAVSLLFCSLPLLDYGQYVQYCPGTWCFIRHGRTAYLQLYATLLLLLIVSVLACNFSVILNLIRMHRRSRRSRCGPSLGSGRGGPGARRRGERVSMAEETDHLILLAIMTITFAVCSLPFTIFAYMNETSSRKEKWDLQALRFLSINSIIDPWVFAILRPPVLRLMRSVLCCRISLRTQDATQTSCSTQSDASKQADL

Compound | EC50 [nM] | In vitro functional assay EP2 (h) % response [%]
N#Cc1cc(CNc2c(F)ccc(OCC(=O)O)c2F)cc(-c2cccc(F)c2)c1 [I(x), 2-[3-[[3-cyano-5-(3-fluorophenyl)phenyl]methylamino]-2,4-difluoro-phenoxy]acetic acid] | 27 | 45
O=C(O)COc1ccc(F)c(NCc2c(F)ccc(-c3cccc(F)c3)c2F)c1F [I(s), 2-[3-[[2,6-Difluoro-3-(3-fluorophenyl)phenyl]methylamino]-2,4-difluoro-phenoxy]acetic acid] | 17 | 72
O=C(O)COc1ccc(F)c(NCc2cc(-c3ccc(F)c(F)c3)ccc2F)c1F [I(w), 2-[3-[[5-(3,4-difluorophenyl)-2-fluoro-phenyl]methylamino]-2,4-difluoro-phenoxy]acetic acid] | 14 | 40
Cc1cc(-c2cccc(F)c2)cc(CNc2c(F)ccc(OCC(=O)O)c2F)c1O [I(u), 2-[2,4-Difluoro-3-[[5-(3-fluorophenyl)-2-hydroxy-3-methyl-phenyl]methylamino]phenoxy]acetic acid] | 9 | 78
Cc1c(OCC(=O)O)ccc(F)c1NCc1cc(-c2cccc(F)c2)ccc1F [I(m), 2-[4-Fluoro-3-[[2-fluoro-5-(3-fluorophenyl)phenyl]methylamino]-2-methyl-phenoxy]acetic acid] | 10 | 89
Cc1cc(-c2cccc(F)c2)cc(CNc2c(F)ccc(OCC(=O)O)c2F)c1F [I(h), 2-[2,4-difluoro-3-[[2-fluoro-5-(3-fluorophenyl)-3-methyl-phenyl]methylamino]phenoxy]acetic acid] | 13 | 88
COc1cc(CNc2c(F)ccc(OCC(=O)O)c2F)cc(-c2cccc(F)c2)c1 [I(q), 2-[2,4-Difluoro-3-[[3-(3-fluorophenyl)-5-methoxy-phenyl]methylamino]phenoxy]acetic acid] | 18 | 70
O=C(O)COc1cccc(NCc2cc(-c3cccc(F)c3)ccc2F)c1 [I(a), 2-[3-[[2-Fluoro-5-(3-fluorophenyl)phenyl]methylamino]phenoxy]acetic acid] | 110 | 74
CC(Nc1c(F)ccc(OCC(=O)O)c1F)c1cc(-c2cccc(F)c2)ccc1F (racemic) [I(as), (R,S)-2-[2,4-difluoro-3-[1-[2-fluoro-5-(3-fluorophenyl)phenyl]ethylamino]phenoxy]acetic acid] | 11 | 107
O=C(O)COc1ccc(F)c(NCc2cc(O)cc(-c3cccc(F)c3)c2)c1F [I(p), 2-[2,4-Difluoro-3-[[3-(3-fluorophenyl)-5-hydroxy-phenyl]methylamino]phenoxy]acetic acid] | 17 | 70
Cc1cc(-c2ccc(F)c(F)c2)cc(CNc2c(F)ccc(OCC(=O)O)c2F)c1C [I(aq), 2-[3-[[5-(3,4-difluorophenyl)-2,3-dimethyl-phenyl]methylamino]-2,4-difluoro-phenoxy]acetic acid] | 2 | 31
O=C(O)COc1ccc(F)c(NCc2cccc(-c3cccc(F)c3)c2)c1F [I(e), 2-[2,4-Difluoro-3-[[3-(3-fluorophenyl)phenyl]methylamino]phenoxy]acetic acid] | 160 | 65
O=C(O)COc1ccc(F)c(NCc2cc(-c3cccc(F)c3)ccc2F)c1Cl [I(o), 2-[2-Chloro-4-fluoro-3-[[2-fluoro-5-(3-fluorophenyl)phenyl]methylamino]phenoxy]acetic acid] | 34 | 74
Cc1c(-c2cccc(F)c2)ccc(F)c1CNc1c(F)ccc(OCC(=O)O)c1F [I(y), 2-[2,4-difluoro-3-[[6-fluoro-3-(3-fluorophenyl)-2-methyl-phenyl]methylamino]phenoxy]acetic acid] | 130 | 62
O=C(O)COc1ccc(F)c(NCc2cc(-c3cccc(F)c3)ccc2Cl)c1F [I(l), 2-[3-[[2-Chloro-5-(3-fluorophenyl)phenyl]methylamino]-2,4-difluoro-phenoxy]acetic acid] | 24 | 76
Cc1cc(-c2cc(F)cc(F)c2)cc(CNc2c(F)ccc(OCC(=O)O)c2F)c1C [I(ar), 2-[3-[[5-(3,5-difluorophenyl)-2,3-dimethyl-phenyl]methylamino]-2,4-difluoro-phenoxy]acetic acid] | 8 | 130
Cc1cc(CNc2c(F)ccc(OCC(=O)O)c2F)cc(-c2cccc(F)c2)c1 [I(d), 2-[2,4-Difluoro-3-[[3-(3-fluorophenyl)-5-methyl-phenyl]methylamino]phenoxy]acetic acid] | 35 | 74
NC(=O)c1cc(CNc2c(F)ccc(OCC(=O)O)c2F)cc(-c2cccc(F)c2)c1 [I(z), 2-[3-[[3-carbamoyl-5-(3-fluorophenyl)phenyl]methylamino]-2,4-difluoro-phenoxy]acetic acid] | 4 | 53
O=C(O)COc1ccc(F)c(NCc2cc(F)cc(-c3cccc(F)c3)c2)c1F [I(n), 2-[2,4-Difluoro-3-[[3-fluoro-5-(3-fluorophenyl)phenyl]methylamino]phenoxy]acetic acid] | 52 | 86
Cc1cc(-c2ccccc2)cc(CNc2c(F)ccc(OCC(=O)O)c2F)c1C [I(au), 2-[3-[(2,3-dimethyl-5-phenyl-phenyl)methylamino]-2,4-difluoro-phenoxy]acetic acid] | 15 | 81

The next lines start with the values.

EC50 [nM] | In vitro functional assay EP2 (h) % response [%] | Compound
18 | 117 | Cc1cc(OCC(=O)O)c(C)c(NCc2cc(-c3cccc(F)c3)ccc2F)c1F [I(ac), 2-[4-fluoro-3-[[2-fluoro-5-(3-fluorophenyl)phenyl]methylamino]-2,5-dimethyl-phenoxy]acetic acid]
160 | 61 | O=C(O)COc1ccc(F)c(NCc2cc(O)cc(-c3cccc(F)c3)c2F)c1F [I(f), 2-[2,4-Difluoro-3-[[2-fluoro-3-(3-fluorophenyl)-5-hydroxy-phenyl]methylamino]phenoxy]acetic acid]
5 | 97 | Cc1c(F)cc(-c2cccc(F)c2)cc1CNc1c(F)ccc(OCC(=O)O)c1C [I(av), 2-[4-fluoro-3-[[3-fluoro-5-(3-fluorophenyl)-2-methyl-phenyl]methylamino]-2-methyl-phenoxy]acetic acid]
26 | 80 | Cc1ccc(OCC(=O)O)c(C)c1NCc1cc(-c2cccc(F)c2)ccc1F [I(j), 2-[3-[[2-Fluoro-5-(3-fluorophenyl)phenyl]methylamino]-2,4-dimethyl-phenoxy]acetic acid]
3 | 89 | COc1cc(CNc2c(C)ccc(OCC(=O)O)c2C)cc(-c2cccc(F)c2)c1 [I(ap), 2-[3-[[3-(3-fluorophenyl)-5-methoxy-phenyl]methylamino]-2,4-dimethyl-phenoxy]acetic acid]
7 | 79 | Cc1cc(CNc2c(C)ccc(OCC(=O)O)c2C)cc(-c2cccc(F)c2)c1 [I(aj), 2-[3-[[3-(3-fluorophenyl)-5-methyl-phenyl]methylamino]-2,4-dimethyl-phenoxy]acetic acid]
3 | 87 | Cc1cc(CNc2c(C)ccc(OCC(=O)O)c2C)c(F)c(-c2cccc(F)c2)c1 [I(am), 2-[3-[[2-Fluoro-3-(3-fluorophenyl)-5-methyl-phenyl]methylamino]-2,4-dimethyl-phenoxy]acetic acid]
1 | 76 | Cc1ccc(OCC(=O)O)c(C)c1NCc1cc(O)cc(-c2cccc(F)c2)c1 [I(ao), 2-[3-[[3-(3-fluorophenyl)-5-hydroxy-phenyl]methylamino]-2,4-dimethyl-phenoxy]acetic acid]
35 | 80 | Cc1cc(CNc2c(F)ccc(OCC(=O)O)c2C)c(F)c(-c2cccc(F)c2)c1 [I(ai), 2-[4-fluoro-3-[[2-fluoro-3-(3-fluorophenyl)-5-methyl-phenyl]methylamino]-2-methyl-phenoxy]acetic acid]
55 | 80 | Cc1cc(CNc2c(F)ccc(OCC(=O)O)c2F)c(F)c(-c2cccc(F)c2)c1 [I(g), 2-[2,4-difluoro-3-[[2-fluoro-3-(3-fluorophenyl)-5-methyl-phenyl]methylamino]phenoxy]acetic acid]

From patent US9249085B2, “Aniline derivatives, their preparation and their therapeutic application” (FOVEA PHARMACEUTICALS, priority 2011, dated 2016)
